Read-outs that look alike come from different tables or passages of the source.
Legend:
TNFA, IL6, MCP1 = assay: Cytokine estimation in infected murine skin (prophylactic model); format: in vivo, mice; set-up: TNFA in murine skin / IL6 in murine skin / MCP1 in murine skin: unit not given here; details: 2% w/w
Procedure: 599 In vivo murine skin infection and treatment
600 We used a topical skin-abraded murine infection model with minor modifications to test
601 the in vivo efficacy of the CIT-8 peptide (25). We performed all mouse studies following the
602 protocol approved by the Institutional Animal Care and Use Committee. In brief, we anesthetized
603 female C57BL/6 mice (6 weeks) (Jackson Laboratory, Bar Harbor, ME, USA) with ketamine-
604 xylazine (90 mg/kg ketamine and 10 mg/kg xylazine) via intraperitoneal injection. We shaved the
605 dorsal side of the mice in the middle of the back (area=2 cm2). To disrupt skin integrity, we tape-
606 stripped with Tensoplast® seven times in succession, replacing the tape each time, resulting in
607 visibly damaged skin. We infected the damaged skin area with 1 × 10^7 CFU of S. aureus MW2
608 (exponential phase bacteria in PBS) with an inoculum of 50 µl using a pipette tip. Ten minutes
609 (prophylactic model) and 24 h (established model) after bacterial inoculation, we applied 30 mg
610 of 1 and 2% (w/w) CIT-8 ointment in a white petroleum jelly base (Cat no. 19-090-843, Fisher
611 Scientific, MA, USA) to the skin. We also included animal groups treated with only petroleum
612 jelly or with 2% commercial mupirocin ointment as negative and positive controls, respectively.
613 For pain management, we used the analgesic buprenorphine SR (0.05 mg/kg).
614 After 24 h of treatment, we euthanized the animals, separated the skin from the underlying
615 fascia and muscle tissue, and excised about 2 cm2 of skin from the infected area. We ground the
616 skin in 1ml of PBS buffer (Gibco, MD, USA). We serially diluted 100 µl of the solution in PBS
617 and plated it on Remel™ TSA plates (Fisher, MA, USA) to estimate viable colony counts after 18
618 h of incubation at 37 °C. Further, we added 10 µl of EDTA-Free, protease inhibitor cocktail Set III
619 (Millipore Sigma, MA, USA) to 500 µl of the ground skin PBS solution for cytokine estimation.
620 The Cytokine Core, LLC (Indianapolis, IN, USA) performed the cytokine concentration analysis

[1] = test system: S. aureus JE2 and transposon mutants; format: cell-based, Staphylococcus aureus
Procedure: 305 Minimal inhibitory concentration (MIC) assay
We made serial dilutions of 10×
We determined the MIC using OD600
Accordingly, we added 150 mM NaCl,
319 established protocol (5).
542 Use of S. aureus transposon mutants
543 We used S. aureus transposon mutants from the Nebraska Transposon Mutant Library
544 (NTML)(21). The library has a collection of 1,952 strains, each containing a single mutation within
545 a nonessential gene of USA300, an epidemic community-associated MRSA (CA-MRSA) isolate
546 (21). We selected a transposon insertion mutant from the NTML library in the fmtc gene, which
547 catalyzes the transfer of a lysyl group from L-lysyl-tRNA to membrane-bound
548 phosphatidylglycerol (PG) to produce lysylphosphatidylglycerol (LPG) (11). LPG imparts a less-
549 negative charge to the overall membrane potential and thus contributes to bacterial virulence by
550 contributing a resistance mechanism against cationic AMPs (11).

S. aureus MW2 membrane = assay: SYTOX-based cell membrane permeability assay; set-up: species or system Staphylococcus aureus; details: S. aureus MW2, 1 hour; CIT-8 4–32 μg/mL
Procedure: 484 min at room temperature in the dark based on a previously established protocol (8). We added 90
485 µl of the dye/bacteria mixture to 10 μl of serially diluted 10× peptide concentration in black, 96-
486 well plates (Cat. no. 3904, Corning, NY, USA) and incubated the plates for 1 hour at room
487 temperature. We measured the fluorescence with excitation and emission wavelengths of 485 nm
488 and 525 nm, respectively in endpoint assay mode using a SpectraMax i3x (Molecular Devices,
489 CA, USA) fluorescence reader.
490 Propidium iodide-based membrane permeability
491 We used a propidium iodide (Thermo Fisher Scientific, MA, USA) fluorescence-based
492 bacterial permeation assay to establish membrane-oriented interactions with the designed peptides
493 based on a previously established protocol (8). We prepared exponential phase S. aureus MW2
494 bacteria and diluted to OD600 = 0.4 in PBS. We added PI dye (final concentration = 2 µM) to the
495 bacteria in 1:10 serial dilutions in black, 96-well plates (Cat. no. 3904, Corning, NY, USA) and
496 incubated the plates for 1 hour at room temperature. We then measured the fluorescence with an
497 excitation wavelength of 584 nm and an emission wavelength of 620 nm in endpoint assay mode
498 using a SpectraMax i3x (Molecular Devices, CA, USA) fluorescence reader.
501 To determine the ATP leakage potential of the peptides, we employed a luciferase-based […]

Procedure for S. aureus isolates: 306 To determine the minimum concentration of peptide that inhibits the growth of bacteria,
307 termed as the minimal inhibitory concentration (MIC), we used the broth microdilution method
308 described by the Clinical and Laboratory Standards Institute (4). We made serial dilutions of 10×
309 concentrated peptides (10 µl) in duplicate in 96-well plates (Cat no. 3595, Corning, NY, USA).
310 We added 90 µl of logarithmic-phase bacteria at 1 × 10^6 CFU/ml (in TSB medium) to the peptides
311 and then incubated the plates at 37°C for 18 hours. We determined the MIC using OD600
312 measurements taken on a Spectra Max i3x spectrophotometer (Molecular Devices, CA, USA).

## H-GLFKVIKKLLKVI-NH2 [CIT-8]
S. aureus isolates; S. aureus AR0215 (VISA)
  MIC: 4 µg/mL
S. aureus isolates; S. aureus AR0216 (VISA)
  MIC: 8 µg/mL
S. aureus isolates; S. aureus AR0217 (VISA)
  MIC: 4 µg/mL
S. aureus isolates; S. aureus AR0219 (VISA)
  MIC: 8 µg/mL
S. aureus isolates; S. aureus AR0225 (VISA)
  MIC: 4 µg/mL
S. aureus isolates; S. aureus BF1 (clinical isolate)
  MIC: 4 µg/mL
S. aureus isolates; S. aureus BF2 (clinical isolate)
  MIC: 8 µg/mL
S. aureus isolates; S. aureus BF3 (clinical isolate)
  MIC: 8 µg/mL
S. aureus isolates; S. aureus BF4 (clinical isolate)
  MIC: 4 µg/mL
S. aureus isolates; S. aureus BF5 (clinical isolate)
  MIC: 4 µg/mL
S. aureus isolates; S. aureus BF6 (clinical isolate)
  MIC: 4 µg/mL
S. aureus isolates; S. aureus BF7 (clinical isolate)
  MIC: 4 µg/mL
S. aureus isolates; S. aureus BF8 (clinical isolate)
  MIC: 4 µg/mL
S. aureus isolates; S. aureus BF9 (clinical isolate)
  MIC: 4 µg/mL
S. aureus isolates; S. aureus BF10 (clinical isolate)
  MIC: 4 µg/mL
S. aureus isolates; S. aureus BF11 (clinical isolate)
  MIC: 4 µg/mL
S. aureus isolates; S. aureus JE2 (MRSA)
  MIC: 4 µg/mL
S. aureus isolates; S. aureus VRS1 (VRSA)
  MIC: 4 µg/mL
S. aureus isolates; range over the isolates of Table 3
  MIC against various VRSA, MRSA, VISA, and S. aureus clinical isolates: 4 to 8 µg/mL
TNFA, IL6, MCP1; animal 1
  IL6 in murine skin: 3.152
  MCP1 in murine skin: 6.488
  TNFA in murine skin: 126
TNFA, IL6, MCP1; animal 2
  IL6 in murine skin: 2.798
  MCP1 in murine skin: 3.271
  TNFA in murine skin: 153.385
TNFA, IL6, MCP1; animal 3
  IL6 in murine skin: 1.183
  MCP1 in murine skin: 2.973
  TNFA in murine skin: 114.591
TNFA, IL6, MCP1; animal 4
  IL6 in murine skin: 2.409
  MCP1 in murine skin: 4.047
  TNFA in murine skin: 182.154
TNFA, IL6, MCP1; animal 5
  IL6 in murine skin: 1.071
  MCP1 in murine skin: 1.51
  TNFA in murine skin: 103
TNFA, IL6, MCP1; animal 6
  IL6 in murine skin: 5.43
  MCP1 in murine skin: 10.445
  TNFA in murine skin: 372.2
TNFA, IL6, MCP1; n = 6
  Reduction of IL6 level in skin: 5 fold
  Reduction of MCP1 level in skin: 5 fold
  Reduction of TNFA level in skin: 2.5 fold
[1]
  Reduction in MIC against mprF transposon mutant compared with JE2: 2 fold
[1]; JE2, Supplemental Table 6
  MIC: 4 µg/mL
[1]; also with 100 μM supplemental external vitamin B6
  MIC for pdx-transposon mutant versus parent strain JE2: same MIC
[1]; mprF transposon mutant (NTML)
  MIC: 2 µg/mL
S. aureus MW2 membrane
  SYTOX Green fluorescence (membrane permeation): significantly increased fluorescence levels
